From ChEMBL document CHEMBL5528022, “Discovery of a brain-permeable bromodomain and extra terminal domain (BET) inhibitor with selectivity for BD1 for the treatment of multiple sclerosis” (Eur J Med Chem, 2024)
Active and inactive are the calls of the source. The rule behind the calls is not given here.

Experiments:
[1] = biological target: T1, Bromodomain-containing protein 4 (Homo sapiens, UniProt O60885); test: Binding affinity to BRD4 BD1 (unknown origin) expressed in Escherichia coli BL21 (DE3) at 1:1 protein:compound ratio by MST assay
[2] = biological target: T1, Bromodomain-containing protein 4; test: Binding affinity to BRD4 BD2 (unknown origin) expressed in Escherichia coli BL21 (DE3) at 1:1 protein:compound ratio by MST assay
[3] = Selectivity ratio of Kd for binding affinity to BRD4 BD2 (unknown origin) by MST assay to Kd for binding affinity to BRD4 BD1 (unknown origin) by MST assay
Microglia = test: Antiinflammatory activity against LPS induced neonatal rat cerebral cortex microglia by immunofluorescence assay; assay type: functional, cell-based
Mus musculus [4] = test: (§1) Anti-inflammatory activity in complete Freund's adjuvant/MOG (35 to 55 residues)/pertussis toxin-induced experimental autoimmune encephalomyelitis C57BL/6 mouse model assessed as reduction in clinical scores at 30 mg/kg, ip bid administered 6 days post immunization and measured every 3 days for 28 days post immunization; assay type: functional, organism-based; settings: time 22.0 day
Mus musculus [5] = test: as §1, with “change” for “reduction”, “cumulative” for “clinical”; assay type: functional, organism-based; settings: time 22.0 day
Mus musculus [6] = test: as §1, with “TNF-alpha level” for “clinical scores”; assay type: functional, organism-based; settings: time 22.0 day
Mus musculus [7] = test: as §1, with “IL-6 level” for “clinical scores”; assay type: functional, organism-based; settings: time 22.0 day
Mus musculus [8] = test: (§2) Anti-inflammatory activity in complete Freund's adjuvant/MOG (35 to 55 residues)/pertussis toxin-induced experimental autoimmune encephalomyelitis C57BL/6 mouse model assessed as appearance of normal myelin structure at 30 mg/kg, ip bid administered 6 days post immunization and measured every 3 days for 28 days post immunization by Luxol fast blue staining based bright field fluorescence microscopic analysis; assay type: functional, organism-based; settings: time 22.0 day
Mus musculus [9] = test: as §2, with “as” for “as appearance of normal”, “density” for “structure”, “60” for “30”; assay type: functional, organism-based; settings: time 22.0 day

Row | Kd [1] [µM] | Kd [2] [µM] | Selectivity ratio [3] | Compound | Activity (Microglia) | Activity (Mus musculus [4]) | Activity (Mus musculus [5]) | Activity (Mus musculus [6]) | Activity (Mus musculus [7]) | Activity (Mus musculus [8]) | Activity (Mus musculus [9])
1 | 0.62 | 30 | 48 | Cc1nn(C)c(C)c1-c1cncc(-c2ccnc3nc[nH]c23)c1 | – | – | – | – | – | – | –
2 | 0.66 | 28 | 42 | Cc1nn(C)cc1-c1cncc(-c2ccnc3nc[nH]c23)c1 | – | – | – | – | – | – | –
3 | – | – | – | COC(=O)/C=C/C(=O)OC | Active | Active | Active | Active | Active | Active | Active
4 | 0.25 | 13 | 51 | Cc1nn(CC2CCC2)c(C)c1-c1cncc(-c2ccnc3nc[nH]c23)c1 | – | – | – | – | – | – | –
5 | 0.99 | 13 | 13 | Cc1nn(CC2CCCC2)c(C)c1-c1cncc(-c2ccnc3nc[nH]c23)c1 | – | – | – | – | – | – | –
6 | 0.33 | 11 | 35 | Cn1cc(-c2cncc(-c3ccnc4nc[nH]c34)c2)c(C(F)(F)F)n1 | – | – | – | – | – | – | –
